Measured values reported in US20200289611A1, “Methods and Compositions for the Inhibition of Quorum Sensing in Bacterial Infections” (priority 2016, published 2020).
Entries after “also recorded” stand apart in the source; their conditions may differ.

Assays:
[1] = test system: MRSA transcriptome (LAC); assay: RNA-seq of WT LAC cultures; assay type: cell-based, Staphylococcus aureus
Method: Cultures of LAC and LAC ? agr were grown in TSB with DMSO alone or 100 µM apicidin (diluted in neat DMSO). All four cultures were grown to optical density of 1.4 at 600 nm, and the RNA was purified. The samples were subjected to DNase treatment and sample was quality was affirmed via Bioanalyzer (Agilent). […] was depleted with a Ribo-Zero rRNA Removal Kit from gram positive bacteria (Illumina). cDNA libraries were generated at the University of Iowa Genomics Division using the TruSeq Stranded mRNA Library Prep kit (Illumina). Sample were barcoded, pooled and sequenced in a 100×100 pared end reads using HiSeq_FPR3757 genome sequence using SeqMan NGen (DNASTAR) and the alignment were analyzed using ArrayStar (DNASTAR).
To evaluate the impact of apicidin upon global transcriptional regulation RNA-seq analysis upon WT LAC cultures grown in the presence of apicidin or vehicle was conducted. For purposes of comparing the effects of apicidin upon the MRSA transcriptome with those resulting from agr deletion, parallel RNA seq-analysis of WT and Δagr preparations were performed. A four-fold cutoff as the threshold for differential gene expression was used, and apicidin altered the expression of thirty transcripts, with >50% of these representing prototypical agr targets such hla, RNAIII, psms, and spl genes (FIG. 10).

[2] = test system: MRSA (USA300 LAC); assay: Intradermal MRSA skin infection model; assay type: in vivo, mice (C57BL/6 and BALB/c); settings: for cutaneous bacterial burden: Lux+ MRSA bioluminescence (IVIS)
Method: At D0, age, strain and sex matched mice were anesthetized with isoflurane, abdominal skin was carefully shaved and exposed skin was cleansed by wiping with an alcohol prep pad. For inoculum preparation, a USA 300 MRSA strain (AH1263), its deletion mutant, LAC strains engineered for constitutive bioluminescence via lux operon insertion (AH3700) or the Lux+ LAC engineered to constitutively express red fluorescent protein (AH 3868), green fluorescent protein (AH3669) were grown to mid-log-phase, pelleted and resuspended in DPBS to achieve 50 μl inoculum mixtures that contained either 2×10^7 CFUs+/−5 μg apicidin (diluted in neat DMSO). Apicidin or DMSO containing inoculums were injected intradermally into abdominal skin. Baseline body weights of mice were measured before infection and every day thereafter for a period of 7 days. For determination of lesion size, digital photos of skin lesions were taken daily and analyzed via ImageJ software.
The potent in vitro activity of apicidin encouraged an assessment of its efficacy in vivo. To this end, an intradermal challenge model was employed by delivering a single 5 μg dose of apicidin along as part of the inoculum suspension containing 2×10^7 MRSA organisms.

[3] = test system: agr activation of LAC agr-P3 lux; assay: Measurement of quorum quenching in vivo (agr-P3 lux reporter strain); design: species or system mice
Method: Inoculum preparation for assessing quorum quenching in vivo: An LAC reporter strain engineered to couple agr activation with bioluminescence, agr-P3 lux (AH2759) was grown in TSB medium+chloramphenicol, overnight at 37° C. in a shaking incubator set to 200 rpm. Overnight cultures were diluted 1:100 TSB+chloramphenicol and subcultured to an optical density of 0.1 at 600 nm hr). Bacterial cells were the pelleted and resuspended in sterile saline. […] Using the image analysis tools in living image software, circular analysis windows (of uniform area) were overlaid onto abdominal regions of interest (as depicted in FIG. 8e) and the corresponding bioluminescence values (total flux) were measured and plotted vs. time after infection.
To this end, mice with an agr-P3 lux reporter strain were challenged and carefully monitored the kinetics of agr activation over a six-hour period immediately following infection.

[4] = test system: CXCL-2 and G-CSF in lesional tissue; assay: Cytokine measurements from tissue homogenates; assay type: in vivo, mice; settings: lesional tissue one day after infection
Method: Biopsy punches (4 mm), obtained from the center of skin ulcerations 1 day after infection, were homogenized with in sterile RPMI with proteinase inhibitor cocktail. The supernatants from these preparations were incubated with a multiplex bead array for IL-1β, G-CSF, KC (CXCL1), and CXCL2. Data were collected on a Luminex 200 (Luminex, Austin, Tex., USA) and analyzed with […]

CCC(=O)CCCCC[C@@H]1NC(=O)[C@H]2CCCCN2C(=O)[C@H](C(C)CC)NC(=O)[C@H](Cc2cn(OC)c3ccccc23)NC1=O (some centres unmarked) [apicidin]
transcriptional signature [1]: narrowly focused upon the agr virulon; also recorded: largely confined to agr-regulated transcripts
number of transcripts with altered expression ([1]; 100 uM apicidin, four-fold cutoff): thirty
share of altered transcripts that are prototypical agr targets ([1]; four-fold cutoff): > 50%
cutaneous bacterial burden [2]: reduced; also recorded: decrease in bacterial burden was observed throughout the experiment
cutaneous bacterial burden ([2]; listed as Apicidin): reduced cutaneous bacterial burden
CFUs recovered from lesional skin ([2]; one day after infection): significantly fewer CFUs were recovered
skin lesion / dermatopathology ([2]; single 5 ug dose with 2x107 MRSA, intradermal, 14 days): significantly reduced MRSA-induced dermatopathology
skin ulcers after agr-P3 lux reporter strain challenge ([3]; 14-day period): dramatic reduction in dermatopathology
agr activation in vivo ([3]; agr-P3 lux reporter, 5 ug apicidin, first hours after infection): reduced quorum sensing activity in vivo; also recorded: significant interference of agr activation in vivo; also recorded: high level of agr interference
production of CXCL-2 [4]: decrease
production of G-CSF [4]: decrease
